Measured values: publication PMC9189904, “Functional Properties of Two Distinct PTH1R Mutants Associated With Either Skeletal Defects or Pseudohypoparathyroidism” (JBMR Plus, 2022)
Residue numbers refer to the chain shown, from its start.

Key:
Type in all cases: cell-based
PTH1R‐R186H [1] = target: T1, PTH1R‐R186H (Homo sapiens, UniProt Q03431, R186H); assay: Fluorescence microscopy of PTH(1-34)TMR-PTH1R complexes in GS-22a cells, ImageJ analysis; settings: ligand 30nM, means of six cells, representative experiment
T1 construct: expressed in transfected cells; plasmid TG-907 made by VectorBuilder
T1 sequence (Q03431 27-593 E90Y/S91D/E92V/E93P/K95Y/E96A/R186H): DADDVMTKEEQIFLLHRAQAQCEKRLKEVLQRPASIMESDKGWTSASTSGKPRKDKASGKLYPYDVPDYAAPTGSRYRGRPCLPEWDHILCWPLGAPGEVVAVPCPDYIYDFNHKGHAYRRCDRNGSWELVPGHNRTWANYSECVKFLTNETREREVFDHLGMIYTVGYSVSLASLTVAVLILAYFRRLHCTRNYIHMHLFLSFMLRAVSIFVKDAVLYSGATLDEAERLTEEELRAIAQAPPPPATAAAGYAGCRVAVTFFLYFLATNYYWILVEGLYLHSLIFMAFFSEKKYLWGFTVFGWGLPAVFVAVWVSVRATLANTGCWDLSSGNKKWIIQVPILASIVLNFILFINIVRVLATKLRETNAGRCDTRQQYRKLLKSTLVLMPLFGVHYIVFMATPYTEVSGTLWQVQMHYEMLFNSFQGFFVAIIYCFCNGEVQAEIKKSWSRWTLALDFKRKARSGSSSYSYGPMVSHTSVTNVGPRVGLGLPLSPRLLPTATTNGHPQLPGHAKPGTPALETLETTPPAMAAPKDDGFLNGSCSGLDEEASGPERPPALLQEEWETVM
Method: (§1) PTH analog binding to WT and mutant PTH1Rs was assessed by fluorescence microscopy in transiently transfected GS‐22A cells as described.^( [30], [31] ^) Briefly, the cells were transfected in six‐well plates, reseeded at 24 hours onto coverslips in six‐well plates, and at 48 hours posttransfection processed for analysis. The plates were placed on ice and the cells on coverslips were rinsed with cold HB. Then 1.0 mL of HB was then added to each well, followed by Alexafluor‐488‐labeled mouse monoclonal anti‐HA immunoglobulin G (IgG) antibody (BioLegend; Cat. No. 901509) at a concentration of 1 μg/mL, and the plate was incubated at 4°C for 1 hour. […] The plate was then shifted to room temperature and incubations continued for 30 minutes. The mixtures were then removed, the cells were rinsed twice with HB, fixed for 5 minutes in 3.7% paraformaldehyde buffer (Boston BioProducts, Inc., Ashland, MA, USA; Cat. No. BM‐158), rinsed with HB, then mounted on a glass microscope slide in Vectashield media containing 4′,6‐diamidino‐2‐phenylindole (DAPI) (Vector Laboratories, Burlingame, CA, USA; Cat. No. H1500) and imaged at magnification ×400 using a Nikon Eclipse fluorescence microscope equipped with a CCD camera configured with SPOT imaging software (Nikon, Tokyo, Japan). Regions of interest were digitally expanded 5× or 7× in PowerPoint software (Microsoft Corp., Redmond, WA, USA).
(§2) Fluorescent microscopy images were analyzed using ImageJ software, ver. […] The freehand tool was used to define the area analyzed for each cell, and the Measure>Analyze Particle tool was used to obtain the number of particles, the total area and the mean grayscale (intensity) of each particle for each cell. For each cell, the number of particles was divided by the total area to obtain the Particles/Total Area.

PTH1R‐V204E [2] = target: T2, PTH1R‐V204E (Homo sapiens, UniProt Q03431, V204E); assay: as above; settings: ligand 30nM, means of six cells, representative experiment
T2 construct: expressed in transfected cells; plasmid TG-928 made by VectorBuilder
T2 sequence (Q03431 27-593 E90Y/S91D/E92V/E93P/K95Y/E96A/V204E): T1 sequence (Q03431 27-593 E90Y/S91D/E92V/E93P/K95Y/E96A/R186H) with H160R, V178E
Method: as §1, §2

PTH1R‐WT [3] = target: T3, PTH1R‐WT (Homo sapiens, UniProt Q03431); assay: as above; settings: ligand 30nM, 30 min 4°C then 30 min room temperature, means of six cells, representative experiment
T3 construct: expressed in transfected cells; plasmid TG-906 made by VectorBuilder
T3 sequence (Q03431 27-593 E90Y/S91D/E92V/E93P/K95Y/E96A): T1 sequence (Q03431 27-593 E90Y/S91D/E92V/E93P/K95Y/E96A/R186H) with H160R
Method: as §1, §2

PTH1R‐R186H [4] = target: T1, PTH1R‐R186H; assay: β-arrestin2-YFP recruitment by fluorescence microscopy in GBR-24 cells, ImageJ analysis; settings: ligand 30nM
Method: (§3) Recruitment of β‐arrestin was assessed in GBR‐24 cells (HEK293/GloSensor (GS‐22A)‐derived cells stably expressing β‐arrestin2^YFP)^( [30] ^) that were transiently transfected to express PTH1R‐WT or a mutant derivative.
as §2

PTH1R‐V204E [5] = target: T2, PTH1R‐V204E; assay: as above; settings: ligand 30nM
Method: as §3, §2

PTH1R‐WT [6] = target: T3, PTH1R‐WT; assay: as above; settings: ligand 30nM
Method: as §3, §2

PTH1R‐P132L = target: T4, PTH1R‐P132L (Homo sapiens, UniProt Q03431, P132L); assay: as above; settings: ligand 30nM
T4 construct: expressed in transfected cells; plasmid TG-395 in pCDNA1
T4 sequence (Q03431 27-593 E90Y/S91D/E92V/E93P/K95Y/E96A/P132L): T1 sequence (Q03431 27-593 E90Y/S91D/E92V/E93P/K95Y/E96A/R186H) with P106L, H160R
Method: as §3, §2

[7] = GBR24 cells, means of six cells
[8] = GBR-24 cells, 30 min, a representative cell

tetramethylrhodamine (TMR)‐^ n L ^8,21‐rat‐PTH(1‐34) [PTH(1‐34)^TMR]
Particles /Total Area (PTH1R‐R186H [1]): 1162 ± 95
Particles /Total Area (PTH1R‐V204E [2]): 826 ± 78
Particles /Total Area (PTH1R‐WT [3]): 1011 ± 57
Particles/Total Area (βArrestinYFP-ligand complexes) (PTH1R‐R186H [4]; [7]): 603 ± 81
Pearson correlation coefficient (R), colocalization of ligand with β-arrestin2YFP (PTH1R‐R186H [4]; [8]): 0.86
Particles/Total Area (βArrestinYFP-ligand complexes) (PTH1R‐V204E [5]; [7]): 496 ± 44
Pearson correlation coefficient (R), colocalization of ligand with β-arrestin2YFP (PTH1R‐V204E [5]; [8]): 0.69
Particles/Total Area (βArrestinYFP-ligand complexes) (PTH1R‐WT [6]; GBR24 cells, 30 min room temperature, means of six cells, representative experiment): 704 ± 22
Pearson correlation coefficient (R), colocalization of ligand with β-arrestin2YFP (PTH1R‐WT [6]; [8]): 0.97
Particles/Total Area (βArrestinYFP-ligand complexes) (PTH1R‐P132L; [7]): 223 ± 66
ligand binding and β-arrestin2YFP recruitment (microscopy signal) (PTH1R‐P132L; GBR-24 cells, 30 min (Fig. 4A)): Only faint signal
